Calls of active or inactive are those of the source. No cut-off for these calls is given here.
Key:
[1] = Inhibition of Fe(3+)-mediated ascorbate oxidation at IBE of 3 relative to control; assay type: functional; conditions: dose or concentration not given here
[2] = system: SK-N-MC; assay: Antiproliferative activity against human SK-N-MC cells after 96 hrs by MTT assay; assay type: functional, cell-based
[3] = Inhibition of hydroxylation of benzoate in presence of Fe(II) at IBE of 1 relative to control; assay type: functional; conditions: dose or concentration not given here
[4] = Inhibition of Fe(3+)-mediated ascorbate oxidation at IBE of 0.1 relative to control; assay type: functional; conditions: dose or concentration not given here
[5] = Inhibition of Fe(3+)-mediated ascorbate oxidation at IBE of 1 relative to control; assay type: functional; conditions: dose or concentration not given here
[6] = Inhibition of hydroxylation of benzoate in presence of Fe(II) at IBE of 3 relative to control; assay type: functional; conditions: dose or concentration not given here
[7] = Increase in Fe(2+)-mediated hydroxyl radical production measured as hydroxylation of benzoate at IBE of 3 relative to control; assay type: functional
[8] = Increase in Fe(3+)-mediated ascorbate oxidation at IBE of 1 relative to control; assay type: functional
[9] = Increase in Fe(3+)-mediated ascorbate oxidation at IBE of 0.1 relative to control; assay type: functional
[10] = Increase in Fe(3+)-mediated ascorbate oxidation at IBE of 3 relative to control; assay type: functional
[11] = Increase in Fe(2+)-mediated hydroxyl radical production measured as hydroxylation of benzoate at IBE of 1 relative to control; assay type: functional
[12] = system: Nucleic Acid; assay: Binding affinity to DNA measured as hypochromicity of UV-vis spectra; assay type: nucleic-acid assay

IC50 [2] | SMILES | Activity [7] | Activity [8] | Activity [10] | further results
8.58 µM | CC(=O)N(O)CCCCCNC(=O)CCC(=O)N(O)CCCCCNC(=O)CCC(=O)N(O)CCCCCN [DEFEROXAMINE] |  |  |  | inhibition [1]: 59%; inhibition [3]: 56%; inhibition [4]: 79%; inhibition [5]: 60%; inhibition [6]: 56%
0.01 µM | CN(C)C(=S)NN=C(c1ccccn1)c1ccccn1 | Active | 439% | 406% | Activity [9]: Active
 | O=C(O)CN(CCN(CC(=O)O)CC(=O)O)CC(=O)O | 343% | 475% | 482% | Activity [11]: 309%
 | COc1cccc2c1C(=O)c1c(O)c3c(c(O)c1C2=O)C[C@@](O)(C(=O)CO)C[C@@H]3O[C@H]1C[C@H](N)[C@H](O)[C@H](C)O1 |  |  |  | Activity [12]: 36%

Reference: ChEMBL document CHEMBL1137318, “Dipyridyl thiosemicarbazone chelators with potent and selective antitumor activity form iron complexes with redox activity” (J Med Chem, 2006)
